Data: US20260356851A1, “TRICYCLIC COMPOUNDS AND USES THEREOF” (HUTCHMED LIMITED, priority 2023, published 2026)

Experiments:
Format in all cases: cell-based
[1] = molecular target: T1, pERK1/2 (Thr202/Tyr204), NCI-1H358 (KRAS G12C) (Homo sapiens, UniProt P01116, G12C); assay: Assay of intracellular pERK1/2 (Thr202/Tyr204) phosphorylation in NCI-H358 cells (KRAS G12C); details: pERK1/2, 2 days, read-out: NCI-H358 (KRAS G12C) IC50
T1 construct: pERK1/2 HTRF read-out
Method: (§1) Example 2: Assay of intracellular pERK1/2 (Thr202/Tyr204)phosphorylation
(§2) 1. Reagents and materials: • pERK1/2 (Thr202/Tyr2O4) HIRE kit, Cisbio, Cat #64ERKPEH; • OptiPlate™-384-well plate, PerkinElmer, Cat #6007299; • 96-well plate, Coming, Cat #353072; • Instrument: EnVision2104, PerkinElmer; • Cell lines: NCI-1H358 (KRAS G12C), ATCC, CRL-5807; PANC-1 (KRAS G121D), ATCC, CRL-1469; NCI-1H441 (KRAS G12V), ATCC, HTB-174.
(§3) 2. Preparation of Reaction Solutions
(§4) • A test compound was dissolved in DMSO, diluted to 200.0 μM and further diluted 3-fold to prepare a series of test compounds at concentrations of 66.7, 22.2, 7.4, 2.5, 0.82, 0.27, 0.09 μM etc. Then 10 μL of the compound at different dilution concentrations was added to 190 μL of a DMEM medium to prepare a 10× test compound; • 1× cell lysis buffer: 4× cell lysis stock solution (provided by the kit) was diluted 4-fold with deionized water, and then 10% 100× blocking stock solution (provided by the kit) was added thereto. • pERK1/2 detection solution (prepared just before use): the pERK1/2 d2 antibody (provided by the kit) and pERK1/2 Cryptate antibody (provided by the kit) were diluted with the detection solution (provided by the kit) at a ratio of 1:1:38.
(§5) • Cells were inoculated into a 96-well plate (100 μL/well) at a density of 10000-12000/well. No cell was inoculated into a negative control well, and only the cell medium was added at 100 μL/well. The plate was placed in a cell incubator at 5% CO2 and 37° C. overnight. • 10 μL of the 10× test compound was added to the 100 μL cell culture 96-well plate; both the positive control well (that is, the control hole without chemical compound treatment) and the negative control well were charged with 10 μL of a 5% DMSO culture solution; and the plate was cultured in a cell incubator at 5% CO2 and 37° C. for 2 days. • The medium in the 96-well plate was removed; 50 μL of the 1× cell lysis buffer was added to each of the wells; the plate was placed in a microplate shaker; and lysis under shaking was carried out at 900 rpm at room temperature for 1 hour. • 16 μL of the lysis buffer in the 96-well plate was taken and transferred to a 384-well plate, followed by centrifugation at 1000 rpm for 30 s; then 4 μL of pERK1/2 detection solution was added to each well, followed by centrifugation at 1000 rpm for 30 s; and the 384-well plate was sealed with a sealing membrane and incubated at 25° C. on a low-speed shaker at 100 rpm in the dark for 2 hours. • The fluorescence value (RFU) of each well was detected on EnVision2104, with an emission wavelength 1 being 665 nm and an emission wavelength 2 being 615 nm.
(§6) Fluorescence ratio=fluorescence value665 nm/fluorescence value615 nm
(§7) Inhibition rate (%)=100−((fluorescence ratio of compound well−fluorescence ratio of negative control well)/(fluorescence ratio of positive control well−fluorescence ratio of negative control well))×100
(§8) wherein: • the fluorescence ratio of compound well refers to the fluorescence ratio of the well containing the test compounds; • the fluorescence ratio of negative control well refers to the fluorescence ratio of the cell-free control well; • the fluorescence ratio of positive control well refers to the fluorescence ratio of the cell well treated with 0.5% DMSO.
(§9) IC50 value: obtained by calculation using XL-Fit 5.0 software.

[2] = molecular target: T2, pERK1/2 (Thr202/Tyr204), PANC-1 (KRAS G121D) (Homo sapiens, UniProt P01116, G12D); assay: Assay of intracellular pERK1/2 (Thr202/Tyr204) phosphorylation in PANC-1 cells (KRAS G12D); details: pERK1/2, 2 days, read-out: PANC-1 (KRAS G12D) IC50
T2 construct: pERK1/2 HTRF read-out
T2 sequence (P01116 1-188 isoform P01116-2 G12D): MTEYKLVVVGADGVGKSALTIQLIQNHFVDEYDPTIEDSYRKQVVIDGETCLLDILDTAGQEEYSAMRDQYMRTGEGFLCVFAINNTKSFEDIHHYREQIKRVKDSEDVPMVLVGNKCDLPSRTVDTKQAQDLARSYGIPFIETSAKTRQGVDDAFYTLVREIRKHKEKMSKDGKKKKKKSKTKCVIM
Method: as §1, §2, §3, §4, §5, §6, §7, §8, §9

[3] = molecular target: T3, pERK1/2 (Thr202/Tyr204), NCI-1H441 (KRAS G12V) (Homo sapiens, UniProt P01116, G12V); assay: Assay of intracellular pERK1/2 (Thr202/Tyr204) phosphorylation in NCI-H441 cells (KRAS G12V); details: pERK1/2, 2 days, read-out: NCI-H441 (KRAS G12V) IC50
T3 construct: pERK1/2 HTRF read-out
T3 sequence (P01116 1-188 isoform P01116-2 G12V): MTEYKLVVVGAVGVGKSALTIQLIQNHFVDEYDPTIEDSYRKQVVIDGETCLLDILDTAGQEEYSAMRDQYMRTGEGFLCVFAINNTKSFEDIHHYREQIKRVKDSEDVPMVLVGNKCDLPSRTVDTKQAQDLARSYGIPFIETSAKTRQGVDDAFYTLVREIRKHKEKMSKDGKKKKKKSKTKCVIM
Method: as §1, §2, §3, §4, §5, §6, §7, §8, §9

T1 sequence (P01116 1-188 isoform P01116-2 G12C): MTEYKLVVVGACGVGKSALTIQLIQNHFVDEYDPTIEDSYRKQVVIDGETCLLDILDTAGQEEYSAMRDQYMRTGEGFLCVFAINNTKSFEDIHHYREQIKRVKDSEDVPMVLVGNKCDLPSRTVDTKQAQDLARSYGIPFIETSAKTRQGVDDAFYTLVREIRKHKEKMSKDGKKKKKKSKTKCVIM

SMILES | IC50 [1] [nM] | IC50 [2] [nM] | IC50 [3] [nM]
C[C@H](c1cccnc1N)N1CCOc2nc(-c3c(C(F)(F)F)ccc4[nH]ncc34)c(F)c3nc(OC[C@@H]4CCN4CC(F)F)nc1c23 (single isomer, unassigned) [Compound 38, 3-((1R or 1S)-1-(2-(((S)-1-(2,2-difluoroethyl)azetidin-2-yl)methoxy)-4-fluoro-5-(5-(trifluoromethyl)-1H-indazol-4-yl)-8,9-dihydro-10H-7-oxa-1,3,6,10-tetraazacyclohepta[de]naphthalen-10-yl)ethyl)pyridin-2-amine] | 595 | > 1000 | 643
CC(c1cccnc1N)N1CCOc2nc(-c3cc(O)cc4ccc(F)c(F)c34)c(F)c3nc(OC[C@@H]4CCCN4C)nc1c23 (single isomer, unassigned) [Compound 41, 4-(10-((R or S)-1-(2-aminopyridin-3-yl)ethyl)-4-fluoro-2-(((S)-1-methylpyrrolidin-2-yl)methoxy)-9,10-dihydro-8H-7-oxa-1,3,6,10-tetraazacyclohepta[de]naphthalen-5-yl)-5,6-difluoronaphthalen-2-ol] | 223 | > 1000 | 820
CC(c1cccnc1N)N1CCOc2nc(-c3cc(O)cc4ccc(F)c(F)c34)c(F)c3nc(OC[C@@H]4CCCN4C)nc1c23 (single isomer, unassigned) [Compound 42, 4-(10-((R or S)-1-(2-aminopyridin-3-yl)ethyl)-4-fluoro-2-(((S)-1-methylpyrrolidin-2-yl)methoxy)-9,10-dihydro-8H-7-oxa-1,3,6,10-tetraazacyclohepta[de]naphthalen-5-yl)-5,6-difluoronaphthalen-2-ol] | 0.9 | 69 | 5
CC(c1cccnc1N)N1CCOc2nc(-c3cc(O)cc(Cl)c3C3CC3)c(F)c3nc(OC[C@@]45CCCN4C[C@H](F)C5)nc1c23 (single isomer, unassigned) [Compound 43, 3-(10-((R or S)-1-(2-aminopyridin-3-yl)ethyl)-4-fluoro-2-(((2R,7aS)-2-fluorotetrahydro-1H-pyrrolizin-7a(5H)-yl)methoxy)-9,10-dihydro-8H-7-oxa-1,3,6,10-tetraazacyclohepta[de]naphthalen-5-yl)-5-chloro-4-cyclopropylphenol] | > 1000 | > 1000 | > 1000
CC(c1cccnc1N)N1CCOc2nc(-c3cc(O)cc(Cl)c3C3CC3)c(F)c3nc(OC[C@@]45CCCN4C[C@H](F)C5)nc1c23 (single isomer, unassigned) [Compound 44, 3-(10-((R or S)-1-(2-aminopyridin-3-yl)ethyl)-4-fluoro-2-(((2R,7aS)-2-fluorotetrahydro-1H-pyrrolizin-7a(5H)-yl)methoxy)-9,10-dihydro-8H-7-oxa-1,3,6,10-tetraazacyclohepta[de]naphthalen-5-yl)-5-chloro-4-cyclopropylphenol] | 0.1 | 3 | 0.6
CC(c1cccnc1N)N1CCOc2nc(-c3cc(O)cc(F)c3C3CC3)c(F)c3nc(OC[C@@H]4CC(F)(F)CN4C)nc1c23 (single isomer, unassigned) [Compound 49, 3-(10-((R or S)-1-(2-aminopyridin-3-yl)ethyl)-2-(((S)-4,4-difluoro-1-methylpyrrolidin-2-yl)methoxy)-4-fluoro-9,10-dihydro-8H-7-oxa-1,3,6,10-tetraacyclohepta[de]naphthalen-5-yl)-4-cyclopropyl-5-fluorophenol] | 15 | 557 | 22
CC(c1cccnc1N)N1CCOc2nc(-c3cc(N)ccc3C(F)(F)F)c(F)c3nc(OC[C@@]45CCCN4C[C@H](F)C5)nc1c23 (single isomer, unassigned) [Compound 53, 3-((R or S)-1-(5-(5-amino-2-(trifluoromethyl)phenyl)-4-fluoro-2-(((2R,7aS)-2-fluorotetrahydro-1H-pyrrolizin-7a(5H)-yl)methoxy)-8,9-dihydro-10H-7-oxa-1,3,6,10-tetraazacyclohepta[de]naphthalen-10-yl)ethyl)pyridin-2-amine] | 88 | > 1000 | 191

More lines, now with the values ahead:

IC50 [1] [nM] | IC50 [2] [nM] | IC50 [3] [nM] | SMILES
18 | 399 | 37 | CC(c1cccnc1N)N1CCOc2nc(-c3cc(O)cc(F)c3C3CC3)c(F)c3nc(OC[C@@H]4CCCN4C)nc1c23 (single isomer, unassigned) [Compound 35, 3-(10-((R or S)-1-(2-aminopyridin-3-yl)ethyl)-4-fluoro-2-(((S)-1-methylpyrrolidin-2-yl)methoxy)-9,10-dihydro-8H-7-oxa-1,3,6,10-tetraazacyclohepta[de]naphthalen-5-yl)-4-cyclopropyl-5-fluorophenol]
2 | 237 | 7 | C[C@@H](c1cccnc1N)N1CCOc2nc(-c3c(C(F)(F)F)ccc4[nH]ncc34)c(F)c3nc(OC[C@@H]4CCN4CC(F)F)nc1c23 (single isomer, unassigned) [Compound 39, 3-((1R or 1S)-1-(2-(((S)-1-(2,2-difluoroethyl)azetidin-2-yl)methoxy)-4-fluoro-5-(5-(trifluoromethyl)-1H-indazol-4-yl)-8,9-dihydro-10H-7-oxa-1,3,6,10-tetraazacyclohepta[de]naphthalen-10-yl)ethyl)pyridin-2-amine]
> 1000 | > 1000 | > 1000 | CC(c1cccnc1N)N1CCOc2nc(-c3cc(O)cc(F)c3C3CC3)c(F)c3nc(OC[C@@H]4CC(F)(F)CN4C)nc1c23 (single isomer, unassigned) [Compound 48, 3-(10-((R or S)-1-(2-aminopyridin-3-yl)ethyl)-2-(((S)-4,4-difluoro-1-methylpyrrolidin-2-yl)methoxy)-4-fluoro-9,10-dihydro-8H-7-oxa-1,3,6,10-tetraazacyclohepta[de]naphthalen-5-yl)-4-cyclopropyl-5-fluorophenol]
916 | > 1000 | > 1000 | CC(c1cccnc1N)N1CCOc2nc(-c3cc(O)cc4ccc(F)c(F)c34)c(F)c3nc(OC[C@@H]4CC(F)(F)CN4C)nc1c23 (single isomer, unassigned) [Compound 50, 4-(10-((R or S)-1-(2-aminopyridin-3-yl)ethyl)-2-(((S)-4,4-difluoro-1-methylpyrrolidin-2-yl)methoxy)-4-fluoro-9,10-dihydro-8H-7-oxa-1,3,6,10-tetraazacyclohepta[de]naphthalen-5-yl)-5,6-difluoronaphthalen-2-ol]
2 | 100 | 5 | CC(c1cccnc1N)N1CCOc2nc(-c3cc(O)cc4ccc(F)c(F)c34)c(F)c3nc(OC[C@@H]4CC(F)(F)CN4C)nc1c23 (single isomer, unassigned) [Compound 51, 4-(10-((R or S)-1-(2-aminopyridin-3-yl)ethyl)-2-(((S)-4,4-difluoro-1-methylpyrrolidin-2-yl)methoxy)-4-fluoro-9,10-dihydro-8H-7-oxa-1,3,6,10-tetraazacyclohepta[de]naphthalen-5-yl)-5,6-difluoronaphthalen-2-ol]
